Where a SMILES comes first, the peptide text is derived from it. The star is where a group is joined. Cbz = O=C(OCc1ccccc1)*

Seven molecules from US20200377599A1, “COMPOSITIONS AND METHODS FOR TREATING CANCER” (BETH ISRAEL DEACONESS MEDICAL CENTER, INC., priority 2017, published 2020) can be followed below.

The test system of experiment [1] is PD-L1 protein in C42 cells. The experiment in a line: Immunoblot of PD-L1 in C42 cells treated with proteasome or cullin E3 ligase inhibitor. Format: cell-based. Conditions: MG132 10 μM or MLN4924 1 μM, 12 hours. Here is the method: FIG. 3K is a graph showing the excised tumor mass (mg) of B16-F10 tumors ectopically expressing SPOP Wild Type (WT) or SPOP-F102C mutant. The B16-F10 tumors were harvested after euthanizing the mice and tumor weight was recorded at the time of sacrifice. Data are represented as mean±S.D., N=5, and *p<0.05 (Student's t-test). FIG. 3L and FIG. 3M are graphs showing the relative cell surface PD-L1 expression and absolute CD3^+ T-cell populations from the isolated tumor-infiltrating lymphocytes in B16-F10 xenografted tumors ectopically expressing SPOP-WT or the SPOP-F102C mutant as determined by FACS analysis. Data are represented as mean±S.D., N=5, and *p<0.05 (Student's t-test). […] FIG. 3O and FIG. 3P are graphs showing the quantification of IHC analysis of PD-L1 protein levels and CD8^+ T cells in 82 cases of SPOP wild-type versus 15 cases of SPOP-mutant human prostate tumor specimens. **p<0.01 (Mann-Whitney test for PD-L1); *p<0.05 (Student's t-test for CD8).
(§1) Cells were lysed in EBC buffer (50 mM Tris pH 7.5, 120 mM NaCl, 0.5% NP-40) supplemented with protease inhibitors (Complete Mini, Roche) and phosphatase inhibitors (phosphatase inhibitor cocktail set I and II, Calbiochem). Protein concentrations were measured by the Beckman Coulter DU-800 spectrophotometer using the Bio-Rad protein assay reagent as described previously (Gao et al. Nat Cell Biol 11, 397-408 (2009)). […]
A general note: A western blot detects proteins with antibodies after separation by electrophoresis.

The subject of experiment [2] is PD-L1 protein abundance in MC38, CT26, 4T1 and B16-F10 cells. The experiment in a line: Immunoblot of PD-L1 in mouse tumor cell lines arrested in M phase. Conditions: MC38, CT26, 4T1 and B16-F10 cells arrested in M phase; treated 20 hours. Format: cell-based.
Source text: FIG. 1A, FIG. 1B, FIG. 1C, FIG. 1D, FIG. 1E, FIG. 1F, FIG. 1G, and FIG. 1H are images showing the protein abundance of PD-L1 as the protein fluctuates during cell cycle progression. […] FIG. 1B are the cell-cycle profiles in FIG. 1A, which were monitored by fluorescence-activated cell sorting (FACS) analysis of DNA content. […] FIG. 1E and FIG. 1F show IB analysis of WCL derived from MC38 tumor cells, which are derived from colon adenocarcinoma, or CT26 mouse tumor cells, which are colon carcinoma cells, treated with the indicated concentration of nocodazole for 20 hours before harvesting. FIG. 1G and FIG. 1H show IB analysis of WCL derived from 4T1 tumor cells, which are breast cancer cells, or CT26 mouse tumor cells treated with indicated concentration of taxol for 20 hours before harvesting. […]
as §1

Experiment [3] deals with T1, PD-L1 (human, UniProt Q9NZQ7 19-290, limits assumed).
T1 construct: also called HA-PD-L1; PD-L1 WT
The experiment is described as follows: co-immunoprecipitation from transfected 293T cells (FIG. 9E).

Experiment [4] addresses T2, SPOP-S6A mutant (UniProt O43791 1-374).
T2 construct: also called Flag-SPOP S6A; phosphorylation-deficient S6A mutant of SPOP
The experiment in a line: co-immunoprecipitation from transfected 293T cells (FIG. 4H).

The target of experiment [5] is T3, Cdh1 (UniProt Q9UM11 1-496, limits assumed).
T3 construct: Expressed in 293T cells or endogenous in MDA-MB-231 and HeLa cells; also called HA-Cdh1; APC/C E3 ligase adaptor protein Cdh1
The experiment is described as follows: co-immunoprecipitation from transfected 293T cells (FIG. 4C). The protocol:
Cells were treated with 30 μM MG132 for 6 hours before harvesting. […] FIG. 4F are in vitro kinase assays showing that cyclin D1/CDK4 phosphorylates SPOP at Ser6, not Ser222. FIG. 4G and FIG. 4H show IB analysis of IP and WCL derived from 293T cells transfected with indicated constructs and treated with MG132 (10 μM) for 12 hours before harvesting. […] Tumor volume were measured every three days and plotted individually. […]

T3 sequence (Q9UM11 whole entry): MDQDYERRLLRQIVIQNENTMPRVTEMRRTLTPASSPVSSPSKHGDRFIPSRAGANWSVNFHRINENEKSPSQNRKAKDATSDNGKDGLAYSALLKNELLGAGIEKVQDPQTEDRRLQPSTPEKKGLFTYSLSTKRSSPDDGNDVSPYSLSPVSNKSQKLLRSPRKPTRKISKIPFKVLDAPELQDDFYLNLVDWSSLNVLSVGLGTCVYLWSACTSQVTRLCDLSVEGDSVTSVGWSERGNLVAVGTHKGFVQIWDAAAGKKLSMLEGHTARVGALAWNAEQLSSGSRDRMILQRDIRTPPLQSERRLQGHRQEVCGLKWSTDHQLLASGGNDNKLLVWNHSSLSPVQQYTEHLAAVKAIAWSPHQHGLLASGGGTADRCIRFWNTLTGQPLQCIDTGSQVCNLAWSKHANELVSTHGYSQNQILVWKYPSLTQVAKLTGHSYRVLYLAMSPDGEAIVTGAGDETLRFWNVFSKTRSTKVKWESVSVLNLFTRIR
T1 sequence (Q9NZQ7 19-290 limits assumed): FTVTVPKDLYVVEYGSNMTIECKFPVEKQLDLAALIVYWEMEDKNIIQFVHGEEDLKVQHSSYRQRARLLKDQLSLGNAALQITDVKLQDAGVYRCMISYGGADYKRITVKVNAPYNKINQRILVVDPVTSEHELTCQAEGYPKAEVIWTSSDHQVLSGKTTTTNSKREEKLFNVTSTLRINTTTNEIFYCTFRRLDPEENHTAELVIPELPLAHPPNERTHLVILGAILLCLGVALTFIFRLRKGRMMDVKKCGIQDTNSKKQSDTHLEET

Turning to `CC(C)C[C@@H](C=O)NC(=O)[C@H](CC(C)C)NC(=O)[C@H](CC(C)C)NC(=O)OCc1ccccc1` [MG132] (Cbz-Leu-Leu-Leu-aldehyde), the PD-L1 protein stability entry in experiment [1] is reported as “stabilized PD-L1 protein”.
The same measure, in the same setting: the value for `NS(=O)(=O)OC[C@@H]1C[C@@H](n2ccc3c(N[C@H]4CCc5ccccc54)ncnc32)C[C@@H]1O` [MLN4924] was “stabilized PD-L1 protein”.
`CC(=O)O[C@H]1C(=O)[C@@]2(C)[C@H]([C@H](OC(=O)c3ccccc3)[C@]3(O)C[C@H](OC(=O)[C@H](O)[C@@H](NC(=O)c4ccccc4)c4ccccc4)C(C)=C1C3(C)C)[C@]1(OC(C)=O)CO[C@@H]1C[C@@H]2O` [Taxol]: the PD-L1 protein abundance result in experiment [2] is “Elevated PD-L1 protein abundance”.
The same measure, in the same setting: under `COC(=O)Nc1nc2ccc(C(=O)c3cccs3)cc2[nH]1` [nocodazole] stands “Elevated PD-L1 protein abundance”.

B1: SPOP delta MATH (other, UniProt O43791 1-374, looked up)
chain: MSRVPSPPPPAEMSSGPVAESWCYTQIKVVSVVQDSVNISGQNTMNMVKVPECRLADELGGLWENSRFTDCCLCVAGQEFQAHKAILAARSPVFSAMFEHEMEESKKNRVEINDVEPEVFKEMMCFIYTGKAPNLDKMADDLLAAADKYALERLKVMCEDALCSNLSVENAAEILILADLHSADQLKTQAVDFINYHASDVLETSGWKSMVVSHPHLVAEAYRSLASAQCPFLGPPRKRLKQS
notes: also called SPOP with the MATH domain deleted; Flag-tagged SPOP delta MATH
B1: the binding result in experiment [3] is recorded as “no binding”.

B2: 14-3-3γ (other, UniProt P61981 1-247, looked up)
chain: MVDREQLVQKARLAEQAERYDDMAAAMKNVTELNEPLSNEERNLLSVAYKNVVGARRSSWRVISSIEQKTSADGNEKKIEMVRAYREKIEKELEAVCQDVLSLLDNYLIKNCSETQYESKVFYLKMKGDYYRYLAEVATGEKRATVVESSEKAYSEAHEISKEHMQPTHPIRLGLALNYSVFYYEIQNAPEQACHLAKTAFDDAIAELDTLNEDSYKDSTLIMQLLRDNLTLWTSDQQDDDGGEGNN
notes: One of the HA-14-3-3 isoform constructs; also called HA-14-3-3γ
Regarding B2, in experiment [4], the binding result is on record as “no binding”.

B3: Flag-SPOP with delta D-Box (RxxL) (other, UniProt O43791 1-374, looked up)
chain: MSRVPSPPPPAEMSSGPVAESWCYTQIKVVKFSYMWTINNFSFCREEMGEVIKSSTFSSGANDKLKWCLRVNPKGLDEESKDYLSLYLLLVSCPKSEVRAKFKFSILNAKGEETKAMESQRAYRFVQGKDWGFKKFIRLDEANGLLPDDKLTLFCEVSVVQDSVNISGQNTMNMVKVPECRLADELGGLWENSRFTDCCLCVAGQEFQAHKAILAARSPVFSAMFEHEMEESKKNRVEINDVEPEVFKEMMCFIYTGKAPNLDKMADDLLAAADKYALERLKVMCEDALCSNLSVENAAEILILADLHSADQLKTQAVDFINYHASDVLETSGWKSMVVSHPHLVAEAYRSLASAQCPFLGPPRKRLKQS
notes: also called SPOP deletion of RxxL mutant; SPOP D-box deletion
Turning to B3, the binding result in experiment [5] is reported as “no binding”.
